This is an account of results in ChEMBL document CHEMBL4393685, “Synthesis and evaluation of pyrimidoindole analogs in umbilical cord blood ex vivo expansion” (Eur J Med Chem, 2019).

Active and inactive are the calls of the source. The rule behind the calls is not given here.

Data set [1] is filed under the species Homo sapiens. The data set can be described thus: Stimulation of ex vivo expansion of human CD34+ cells assessed as increase in granulocyte/macrophage differentiation at 165 nM measured after 14 days. It is filed as functional.
A short description of data set [2]: Stimulation of ex vivo expansion of human CD34+ cells assessed as CD34+CD38-CD90+[…] cells at 165 nM incubated for 7 days supplemented with 50% fresh medium containing cytokines every other day by flow cytometry (reference value: 2.98 +/- 0.5%). Format: functional. On the technique in general: Flow cytometry measures light scatter and fluorescence of single cells or particles in a stream.

A further data set deals with THP-1. Kind of data set: Cytotoxicity against human THP1 cells assessed as reduction cell viability up to 1600 nM after 4 days by CCK8 assay. It is filed as cell-based. To be noted: thp-1, 96 h.
Data set [3] is filed under the species Homo sapiens. Kind of data set: Stimulation of ex vivo expansion of human CD34+ cells assessed as decrease in burst forming units of erythroid at 165 nM measured after 14 days. It is filed as functional.
A short description of data set [4]: Stimulation of ex vivo expansion of human CD34+ cells assessed as CD34+ cells at 165 nM incubated for 7 days supplemented with 50% fresh medium containing cytokines every other day by flow cytometry (reference value: 25.9 +/- 0.01%). Format: functional.
Data set [5] can be described thus: Stimulation of ex vivo expansion of human CD34+ cells assessed as increase in CD34+ cells at 165 nM incubated for 7 days supplemented with 50% fresh medium containing cytokines every other day by flow cytometry relative to base line. It is filed as functional.
Data set [6] can be described thus: Stimulation of ex vivo expansion of human CD34+ cells assessed as CD34+CD38-CD90+[…]CD49F+ cells at 165 nM incubated for 7 days supplemented with 50% fresh medium containing cytokines every other day by flow cytometry (reference value: 0.16 +/- 0.04%). Format: functional.
Data set [7] is described as follows: Cytotoxicity against human CD34+ cells assessed as live cells at 165 nM incubated for 7 days supplemented with 50% fresh medium containing cytokines every other day by flow cytometry (reference value: 77.3 +/- 2%). It is filed as cell-based. As to conditions: read-out: Activity.
Data set [8] in a line: Stimulation of ex vivo expansion of human CD34+ cells assessed as CD34+CD38- level at 0.01 to 1 uM incubated for 7 days supplemented with 50% fresh medium containing cytokines every other day by flow cytometry (reference value: 19.10 +/- 0.35%). It is filed as functional.
Data set [9] is described as follows: Stimulation of ex vivo expansion of human CD34+ cells assessed as CD34+/CD38- level at 0.01 to 1 uM incubated for 7 days supplemented with 50% fresh medium containing cytokines every other day by flow cytometry relative to control. Format: functional.
The nature of data set [10]: Stimulation of ex vivo expansion of human CD34+ cells assessed as CD34+CD38- level incubated for 7 days supplemented with 50% fresh medium containing cytokines every other day by flow cytometry. Format: functional. As to conditions: Homo sapiens, 168 h; read-out: EC50.
A short description of data set [11]: Stimulation of ex vivo expansion of human CD34+ cells assessed as increase in expansion of total cells at 165 nM incubated for 7 days supplemented with 50% fresh medium containing cytokines every other day by flow cytometry relative to control. It is filed as functional.
The nature of data set [12]: Stimulation of ex vivo expansion of human CD34+ cells assessed as increase in CD34+CD38- cells at 165 nM incubated for 7 days supplemented with 50% fresh medium containing cytokines every other day by flow cytometry relative to base line. Format: functional.
Data set [13] in a line: Stimulation of ex vivo expansion of human CD34+ cells assessed as increase in expansion of total cells at 165 nM incubated for 7 days supplemented with 50% fresh medium containing cytokines every other day by flow cytometry relative to base line. Format: functional.
Data set [14] is described as follows: Stimulation of ex vivo expansion of human CD34+ cells assessed as increase in colony forming cells at 165 nM after 14 days relative to control. Format: functional.
Data set [15] in a line: Stimulation of ex vivo expansion of human CD34+ cells assessed as increase in CD34+CD38- cells at 165 nM incubated for 7 days supplemented with 50% fresh medium containing cytokines every other day by flow cytometry relative to control. Format: functional.
The nature of data set [16]: Stimulation of ex vivo expansion of human CD34+CD38- cells assessed as increase in expansion of total cells at 165 nM incubated for 7 days supplemented with 50% fresh medium containing cytokines every other day by flow cytometry relative to control. It is filed as functional.
The species entered for data set [17] is Homo sapiens. The data set can be described thus: Stimulation of ex vivo expansion of human CD34+ assessed as increase in granulocyte differentiation at 165 nM measured after 14 days. It is filed as functional.
Data set [18] is described as follows: Stimulation of ex vivo expansion of human CD34+ cells assessed as CD34+/CD38- cells at 165 nM incubated for 7 days supplemented with 50% fresh medium containing cytokines every other day by flow cytometry (reference value: 19.16 +/- 0.32%). Format: functional.
Data set [19] in a line: Stimulation of ex vivo expansion of human CD34+ cells assessed as colony forming cells at 165 nM measured after 14 days. Format: functional.

The EC50 is the concentration that produces a half-maximal response.

As for `COc1cc2c(cc1OC)CN(CCNc1nc(Cc3ccccc3)nc3[nH]c4cc(-c5nnn(C)n5)ccc4c13)CC2`, the outcome in the data set filed under Homo sapiens [1], in the data set filed under Homo sapiens [3] and in the data set listed under Homo sapiens [17] was Active. Further, the Activity is 4.05% in data set [2]; “Non-Toxic” in the data set on THP-1; 60.33% in [4]; 0.21% in [6]; 69.69% in [8]; 58% in data set [18]. Besides, the Activity in data set [19] was 254 CFU. For the same compound, the “fold change (FC)” value in data set [5] was 5; in data set [9], 3.65; in data set [11], 2.4; in data set [12], 4 - 5; in [13], 5; in data set [14], 1.4. The “fold change (FC)” value stood at 4.4 in data set [15] and 4.9 in data set [16]. Besides, the viability at 168 h, 0.165 µM in data set [7] was determined as 80.6%. Also, the EC50 in data set [10] was 30 nM.
